Results published in patent US6552080B1, “Fungicidal compounds having a fluorovinyl-or fluoropropenyl-oxyphenyloxime moiety and process for the preparation thereof” (Korea Research Institute of Chemical Technology, priority 1999, dated 2003).
Like-named read-outs stand apart in the source and are kept apart here.

Legend:
[1] = system: Pyricularia oryzae Carvara KA301; assay type: in vivo; conditions: Rice Blast
Botrytis cinerae = assay: Fungicidal activity against Cucumber Gray Mold Rot (CGM) disease; assay type: in vivo; conditions: Cucumber Gray Mold Rot; concentration 50 ppm
Method: Botrytis cinerae, which was isolated from cucumber infected thereby, was inoculated on a PDA agar medium and cultured under a 12L/12D cycle at 25° C. for 15 days to form spore. The spores were scraped, filtered through a gauze and then suspended in potato dextrose liquid medium at a concentration of 1×10^6 spore/ml. The spore suspension was sprayed on a cucumber plant having one leaf. The cucumber plant was held in a humidified room at 20° C. for 3 days. L.A. on a leaf was measured to calculate an C.V.

Phytophthora infestans = assay type: in vivo; conditions: Tomato Late Blight
Puccinia recondita = assay: Fungicidal activity against Wheat Leaf Rust (WLR) disease; assay type: in vivo; conditions: Wheat Leaf Rust
Erysiphae graminis = assay: Fungicidal activity against Barley Powdery Mildew (BPM) disease; assay type: in vivo; conditions: Barley Powdery Mildew
Rhizoctonia solani AG-1 = assay: Fungicidal activity against Rice Sheath Blight (RSB) disease; conditions: Rice Sheath Blight

| SMILES | RCV (Fungicidal Activities, C.V.) ([1]; concentration 2 ppm) [%] | RCV (Fungicidal Activities, C.V.) ([1]; concentration 10 ppm) [%] | RCV (Fungicidal Activities, C.V.) ([1]; concentration 50 ppm) [%] | CGM (Fungicidal Activities, C.V.) (Botrytis cinerae) [%] | TLB (Fungicidal Activities, C.V.) (Phytophthora infestans; concentration 50 ppm) [%] | WLR (Fungicidal Activities, C.V.) (Puccinia recondita; concentration 2 ppm) [%] | WLR (Fungicidal Activities, C.V.) (Puccinia recondita; concentration 10 ppm) [%] | WLR (Fungicidal Activities, C.V.) (Puccinia recondita; concentration 50 ppm) [%] | BPM (Fungicidal Activities, C.V.) (Erysiphae graminis; concentration 2 ppm) [%] | BPM (Fungicidal Activities, C.V.) (Erysiphae graminis; concentration 10 ppm) [%] | BPM (Fungicidal Activities, C.V.) (Erysiphae graminis; concentration 50 ppm) [%] | RSB (Fungicidal Activities, C.V.) (Rhizoctonia solani AG-1; concentration 50 ppm) [%] | RSB (Fungicidal Activities, C.V.) (Rhizoctonia solani AG-1; concentration 2 ppm) [%] | RSB (Fungicidal Activities, C.V.) (Rhizoctonia solani AG-1; concentration 10 ppm) [%] | TLB (Fungicidal Activities, C.V.) (Phytophthora infestans; concentration 2 ppm) [%] |
| --- | --- | --- | --- | --- | --- | --- | --- | --- | --- | --- | --- | --- | --- | --- | --- |
| CO/C=C(/C(=O)OC)c1ccccc1CON=Cc1cccc(OC(F)=Cc2ccccc2)c1 [Compound 1] | 71 | 86 | 100 | 69 | 12 | 96 | 100 | 100 | 99 | 100 | 100 | 65 |  |  |  |
| COC=C(C(=O)OC)c1ccccc1CON=Cc1cccc(OC(F)=Cc2cccc(C)c2)c1 [Compound 2] | 33 | 86 | 93 | 17 | 85 | 97 | 100 | 100 | 98 | 99 | 100 | 60 |  |  |  |
| COC=C(C(=O)OC)c1ccccc1CON=Cc1cccc(OC(F)=Cc2ccc(C)cc2)c1 [Compound 3] | 0 | 80 | 100 | 46 | 84 | 96 | 98 | 100 | 86 | 99 | 100 | 60 |  |  |  |
| COC=C(C(=O)OC)c1ccccc1CON=Cc1cccc(OC(F)=Cc2cc(C)cc(C)c2)c1 [Compound 5] |  |  | 41 | 17 | 28 | 96 | 100 | 100 | 98 | 100 | 100 | 55 |  |  |  |
| CCc1ccc(C=C(F)Oc2cccc(C=NOCc3ccccc3C(=COC)C(=O)OC)c2)cc1 [Compound 6] | 8 | 58 | 99 | 44 | 33 | 98 | 100 | 100 | 97 | 99 | 100 | 75 |  |  |  |
| COC=C(C(=O)OC)c1ccccc1CON=Cc1cccc(OC(F)=Cc2ccc(OC)cc2)c1 [Compound 9] | 8 | 83 | 100 | 53 | 12 | 95 | 98 | 100 | 55 | 99 | 100 | 50 |  |  |  |
| COC=C(C(=O)OC)c1ccccc1CON=Cc1cccc(OC(F)=Cc2cccc(F)c2)c1 [Compound 11] | 33 | 86 | 100 | 17 | 85 | 97 | 100 | 100 | 98 | 99 | 100 | 40 |  |  |  |
| COC=C(C(=O)OC)c1ccccc1CON=Cc1cccc(OC(F)=Cc2ccc(F)cc2)c1 [Compound 12] | 33 | 93 | 98 | 52 | 83 | 100 | 100 | 100 | 98 | 100 | 100 | 70 |  |  |  |
| COC=C(C(=O)OC)c1ccccc1CON=Cc1cccc(OC(F)=Cc2cccc(Cl)c2)c1 [Compound 13] | 41 | 86 | 93 | 36 | 46 | 99 | 100 | 100 | 99 | 100 | 100 | 70 |  |  |  |
| COC=C(C(=O)OC)c1ccccc1CON=Cc1cccc(OC(F)=Cc2ccc(Cl)cc2)c1 [Compound 14] | 58 | 86 | 100 | 7 | 12 | 96 | 99 | 100 | 99 | 100 | 100 | 75 |  |  |  |
| CON=C(C(=O)OC)c1ccccc1CON=Cc1cccc(OC(F)=Cc2ccccc2)c1 [Compound 24] | 28 | 88 | 97 | 50 | 33 | 95 | 97 | 99 | 95 | 100 | 100 | 95 | 44 | 72 |  |
| CON=C(C(=O)OC)c1ccccc1CON=Cc1cccc(OC(F)=Cc2ccc(C)cc2)c1 [Compound 25] | 66 |  | 98 | 9 | 99 | 95 |  | 100 | 93 |  | 100 | 40 | 15 |  | 75 |
| CON=C(C(=O)OC)c1ccccc1CON=Cc1cccc(OC(F)=Cc2ccc(OC)cc2)c1 [Compound 26] |  |  | 95 | 77 | 90 |  |  | 93 |  |  | 100 | 77 |  |  |  |
